Consider seven compounds from PMC4281101 (Journal of Medicinal Chemistry, 2014).

≈ marks a conversion by molar mass, not a printed value. A value given as a limit tells only on which side of the number the result lay.

Series [1] in a line: Stability in the mouse liver microsome. Conditions: for microsomal CLint at 0.5 μM: CD-1, mouse, liver microsomes, pH 7.4; for Clapp / Clh / Eh / k: CD-1 mouse liver microsomes.
In series [2] the test system is PEPCK mRNA expression in HepG2 cell. The series can be described thus: Cell-based assay for inhibition on the mRNA expression of PEPCK.
In series [3] the test system is G-6-Pase mRNA expression in HepG2 cell. The series can be described thus: Cell-based assay for inhibition on the mRNA expression of G-6-Pase.
Series [4] can be described thus: Pharmacokinetics analysis of 3r in CD-1 mice. The format is in vivo. The settings on record: 5 mg/kg.
Series [5] can be described thus: Solubility in simulated gastric/intestinal fluids. The format is physicochemical. Conditions: simulated intestinal fluid, pH 6.8.
A further series deals with KM mice. In words: Acute toxicity in mice. The class given is in vivo.
Series [6] can be described thus: Pharmacokinetics analysis of 8r in SD rats. Conditions: 5 mg/kg; for T1/2: SD rats. The class given is in vivo.
The target in series [7] is T1, PDE9A2 (181–506) (Homo sapiens, UniProt O76083). In words: PDE enzymatic assay, PDE9A2 catalytic domain. The class given is biochemical.
The target in series [8] is T1, PDE9A2 (181–506). Conditions: read-out: IC50 ± SD, PDE9A2 (181–506); 28s from previous report; cited from earlier work.
A further series in a line: Pharmacokinetics of 28s. The format is in vivo. The settings on record: blood, po, 5 mg/kg.
Setting [9] is: HepG2 cell-based assay, general statement.
Setting [10] is: HepG2 cell, cAMP/dexamethasone stimulation, 300 nM, in words.

T1 sequence (O76083 241-566): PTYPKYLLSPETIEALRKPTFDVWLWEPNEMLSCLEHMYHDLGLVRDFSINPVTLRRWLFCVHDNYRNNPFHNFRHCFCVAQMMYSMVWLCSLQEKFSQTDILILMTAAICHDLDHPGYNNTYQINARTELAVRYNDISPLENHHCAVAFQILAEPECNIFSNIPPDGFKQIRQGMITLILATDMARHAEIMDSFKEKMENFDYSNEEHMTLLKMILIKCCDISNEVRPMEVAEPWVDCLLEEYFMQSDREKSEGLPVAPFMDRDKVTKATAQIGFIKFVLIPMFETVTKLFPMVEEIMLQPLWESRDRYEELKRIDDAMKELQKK

With `COc1ccc(NC(=O)[C@@H](C)Nc2nc3c(cnn3C3CCCC3)c(=O)[nH]2)cc1` [Compound 3r, (R)-2-((1-Cyclopentyl-4-hydroxy-1H-pyrazolo[3,4-d]pyrimidin-6-yl)amino)-N-(4-methoxyphenyl)propanamide], in series [1], the microsomal CLint at 0.5 μM is 62 µL/min/mg, the Clapp is reported as 244.3 mL min^–1 kg^–1, the Clh amounted to 65.8 mL min^–1 kg^–1 and the Eh turned out to be 73.1%. This compound also returned a k in [1] of 0.03102. In addition, in series [2] (setting [9]), the “mRNA expression of phosphoenolpyruvate carboxykinase” value is given as “inhibits the mRNA expression”. Also, the “8-Br-cAMP/dexamethasone-induced expression of PEPCK” value in series [2] (HepG2 cells, 10 nM, in words) was “back to the basal level”. Also, in series [3] (setting [9]), the “mRNA expression of glucose 6-phosphatase” value is “inhibits the mRNA expression”. In addition, the “8-Br-cAMP/dexamethasone-induced expression of G-6-Pase” value in series [3] (HepG2 cells, 10 nM, in words) is given as “back to the basal level”. Besides, in series [4] (iv, CD-1 mice), the T1/2 turned out to be 5.34 ± 1.43 h. Further, in series [4] (male, CD-1, mouse, blood, iv), the mean residence time MRT inf was found to be 1.08 ± 0.08 h, the volume of distribution (Vd) was 1.53 ± 0.15 L/kg and the clearance was 23.8 mL/min/kg. In addition, the C0 in series [4] (male, CD-1, mouse, blood, iv, C0, iv, CD-1 mice) came to 24500 ± 7520 ng/mL. Also, in series [4] (male, CD-1, mouse, blood, po), the Cmax came to 217 ng/mL, the MRT inf turned out to be 2.65 ± 0.82 h, the Tmax came to 34.8 ± 22.8 min and the bioavailability stood at 9.8 ± 3.1%. In addition, in series [4] (po, CD-1 mice), the CL was 14.6 ± 3.5 L h^–1 kg^–1, the T1/2 amounted to 1.67 ± 0.04 h and the Vss turned out to be 35.0 ± 7.9 L/kg. The compound also registered a solubility in series [5] of 31 ± 4 µg/mL (≈ 78.2 µM). In addition, the dose well tolerated in the series with KM mice (single oral dose) is on record as ≤ 1200 mg/kg. In addition, in the series with KM mice (single oral dose up to 1200 mg/kg), the acute toxicity result is listed as “no acute toxicity”. Besides, in the series on KM mice (single oral doses 600 or 1200 mg/kg, 2 weeks), the “abnormal behaviors, water/food consumption and body weight” value was “no abnormal behaviors and significant changes of water/food consumption and body weight were observed”.
Consider `C[C@@H](Nc1nc2c(cnn2C2CCCC2)c(=O)[nH]1)C(=O)Nc1ccc(F)cc1` [Compound 8r, (R)-2-((1-Cyclopentyl-4-oxo-4,5-dihydro-1H-pyrazolo[3,4-d]pyrimidin-6-yl)amino)-N-(4-fluorophenyl)propanamide], for which the T1/2 in [6] (iv) stood at 1.01 ± 0.09 h. Besides, in series [6] (male, SD, rat, blood, iv), the C0 worked out at 19100 ± 428 ng/mL, the MRT inf worked out at 0.59 ± 0.13 h, the distribution volume (Vd) was 2.58 ± 0.07 L/kg and the clearance was 29.7 mL/min/kg. Besides, in [6] (male, SD, rat, blood, po), the Cmax was 135 ± 55 ng/mL, the mean residence time MRT inf is 3.94 ± 1.11 h, the time to peak (Tmax) was 1 ± 0.87 h and the bioavailability was found to be 18 ± 7%. This compound also yielded a T1/2 in [6] (po) of 4.08 ± 1.00 h.
Compound `COc1ccc(NC(=O)[C@@H](C)Nc2nc3c(cnn3-c3ccccc3Cl)c(=O)[nH]2)cc1` [Compound 28r, (R)-2-((1-(2-Chlorophenyl)-4-hydroxy-1H-pyrazolo[3,4-d]pyrimidin-6-yl)amino)-N-(4-methoxyphenyl)propanamide] came in with a Ki on PDE9A2 (181–506) [7] of 5 nM.
Regarding `COc1ccc(NC(=O)[C@H](C)Nc2nc3c(cnn3-c3ccccc3Cl)c(=O)[nH]2)cc1` [Compound 28s], at PDE9A2 (181–506) [7], the Ki amounted to 16 nM. Also, the concentration for half-maximal inhibition (IC50) at PDE9A2 (181–506) [8] is 21 ± 5 nM. The Cmax in the series “Pharmacokinetics of 28s” stood at 16 ng/mL.
With `C[C@]12CC[C@H]3[C@@H](CCC4=CC(=O)CC[C@@]43C)[C@@H]1CC[C@@H]2O` [testosterone], in series [1], the microsomal CLint at 0.5 μM amounted to 692 µL/min/mg, the Clapp was determined as 2725.1 mL min^–1 kg^–1, the Clh came to 87.1 mL min^–1 kg^–1 and the Eh came to 96.8%. In addition, the k in [1] was 0.346.
As for `CC(=O)CC(c1ccccc1)c1c(O)c2ccccc2oc1=O` (stereo not drawn) [warfarin], in [1], the Clapp is 30.9 mL min^–1 kg^–1 and the Clh turned out to be 23.0 mL min^–1 kg^–1.
Consider insulin, for which, in series [2] (setting [10]), the “mRNA expression of PEPCK” value is on record as “to the basal level”. Also, the “mRNA expression of G-6-Pase” value in [3] (setting [10]) is given as “to the basal level”.
